In ChEMBL document CHEMBL3885861, “Open TG-GATES”:

Species on record: Rattus norvegicus
Experiment: Open TG-GATES - Regimen: Daily Repeat
Type: toxicity, organism-based, Sprague-Dawley
Design: regimen Daily Repeat, gender Male, age 6 weeks
Settings: in vivo, po, 0 mg/kg, route gavage, dose level Control; for APTT / Bas / Eos / Fbg / Hb / Ht / Lym / MCH / MCHC / MCV / Mono / Neu / PT / Plat / RBC / Ret / WBC: tissue Blood; for KIDNEY_L / KIDNEY_R / KIDNEY_TOTAL: tissue Kidney; for LIVER: tissue Liver; for A/G / ALP / ALT / AST / BUN / CRE / Ca / Cl / DBIL / GLC / IP / K / LDH / Na / PL / RALB / TBIL / TC / TG / TP / gamma-GTP: tissue Plasma

Molecule `CC[C@@H](CO)NCCN[C@@H](CC)CO` [ETHAMBUTOL] has a TERMINAL_BW (72 h, time 3 day) of 245.1 g, an APTT (72 h, time 3 day) of 21.9 s and a Bas (72 h, time 3 day) of 0%. For the same molecule, the Eos (72 h, time 3 day) was 1%, the Fbg (72 h, time 3 day) was 308.2 mg/dL and the Hb (72 h, time 3 day) was 13.6 g/dL. It also gave a Ht (72 h, time 3 day) of 38.8%, a Lym (72 h, time 3 day) of 80.6% and an MCH (72 h, time 3 day) of 21.9 pg. The MCHC (72 h, time 3 day) was 34.9%, the MCV (72 h, time 3 day) was 62.6 fL and the Mono (72 h, time 3 day) was 3.2%. The Neu (72 h, time 3 day) was 13.8%, the PT (72 h, time 3 day) was 16.1 s and the Plat (72 h, time 3 day) was 127.2 x10_4/uL. It also gave an RBC (72 h, time 3 day) of 619.8 x10_4/ul, a Ret (72 h, time 3 day) of 6.5% and a WBC (72 h, time 3 day) of 109.6 x10_2/uL. The KIDNEY_L (72 h, time 3 day) was 1.1 g, the KIDNEY_R (72 h, time 3 day) was 1.1 g and the KIDNEY_TOTAL (72 h, time 3 day) was 2.2 g. It also gave an LIVER (72 h, time 3 day) of 11.5 g, an A/G (72 h, time 3 day) of 1.1 and an ALP (72 h, time 3 day) of 1450 IU/L. The ALT (72 h, time 3 day) was 45.4 IU/L, the AST (72 h, time 3 day) was 68.6 IU/L and the BUN (72 h, time 3 day) was 19.2 mg/dL. It also gave a CRE (72 h, time 3 day) of 0.2 mg/dL, a Ca (72 h, time 3 day) of 10.9 mg/dL and a Cl (72 h, time 3 day) of 107 meq/L. For the same molecule, the DBIL (72 h, time 3 day) was 0 mg/dL, the GLC (72 h, time 3 day) was 194.6 mg/dL and the IP (72 h, time 3 day) was 7.6 mg/dL. It also gave a K (72 h, time 3 day) of 4.4 meq/L, an LDH (72 h, time 3 day) of 172.4 IU/L and a Na (72 h, time 3 day) of 140.2 meq/L. It also gave a PL (72 h, time 3 day) of 155.6 mg/dL, an RALB (72 h, time 3 day) of 3 g/dL and a TBIL (72 h, time 3 day) of 0.004 mg/dL. It also gave a TC (72 h, time 3 day) of 78.4 mg/dL, a TG (72 h, time 3 day) of 123.2 mg/dL and a TP (72 h, time 3 day) of 5.7 g/dL. It also gave a gamma-GTP (72 h, time 3 day) of 1.4 IU/L, a TERMINAL_BW ([…], time 7 day) of 267.6 g and a TERMINAL_BW ([…], time 14 day) of 330.7 g. It also gave a TERMINAL_BW ([…], time 28 day) of 391.8 g, an APTT ([…], time 7 day) of 23.2 s and a Bas ([…], time 7 day) of 0%. For the same molecule, the Eos ([…], time 7 day) was 1%, the Fbg ([…], time 7 day) was 338.4 mg/dL and the Hb ([…], time 7 day) was 14.1 g/dL. For the same molecule, the Ht ([…], time 7 day) was 41.1%, the Lym ([…], time 7 day) was 83% and the MCH ([…], time 7 day) was 21.1 pg. For the same molecule, the MCHC ([…], time 7 day) was 34.3%, the MCV ([…], time 7 day) was 61.4 fL and the Mono ([…], time 7 day) was 2.2%. For the same molecule, the Neu ([…], time 7 day) was 12.8%, the PT ([…], time 7 day) was 15.4 s and the Plat ([…], time 7 day) was 110.1 x10_4/uL. It also gave an RBC ([…], time 7 day) of 671 x10_4/ul, a Ret ([…], time 7 day) of 5.1% and a WBC ([…], time 7 day) of 113 x10_2/uL. For the same molecule, the APTT ([…], time 14 day) was 21.6 s, the Bas ([…], time 14 day) was 0% and the Eos ([…], time 14 day) was 0.8%. The Fbg ([…], time 14 day) was 321.6 mg/dL, the Hb ([…], time 14 day) was 14.4 g/dL and the Ht ([…], time 14 day) was 42.1%. For the same molecule, the Lym ([…], time 14 day) was 80%, the MCH ([…], time 14 day) was 20.5 pg and the MCHC ([…], time 14 day) was 34.2%. It also gave an MCV ([…], time 14 day) of 60.1 fL, a Mono ([…], time 14 day) of 2.4% and a Neu ([…], time 14 day) of 15%. It also gave a PT ([…], time 14 day) of 16.3 s, a Plat ([…], time 14 day) of 103.5 x10_4/uL and an RBC ([…], time 14 day) of 701.6 x10_4/ul. For the same molecule, the Ret ([…], time 14 day) was 4.4%, the WBC ([…], time 14 day) was 116.4 x10_2/uL and the APTT ([…], time 28 day) was 26.2 s. The Bas ([…], time 28 day) was 0%, the Eos ([…], time 28 day) was 1.2% and the Fbg ([…], time 28 day) was 315.8 mg/dL. It also gave a Hb ([…], time 28 day) of 14.7 g/dL, a Ht ([…], time 28 day) of 42.6% and a Lym ([…], time 28 day) of 83.4%. It also gave an MCH ([…], time 28 day) of 19.3 pg, an MCHC ([…], time 28 day) of 34.4% and an MCV ([…], time 28 day) of 56 fL. It also gave a Mono ([…], time 28 day) of 2.6%, a Neu ([…], time 28 day) of 11.4% and a PT ([…], time 28 day) of 15.6 s. The Plat ([…], time 28 day) was 106 x10_4/uL, the RBC ([…], time 28 day) was 761.2 x10_4/ul and the Ret ([…], time 28 day) was 3.1%. It also gave a WBC ([…], time 28 day) of 131.5 x10_2/uL, a KIDNEY_L ([…], time 7 day) of 1.1 g and a KIDNEY_R ([…], time 7 day) of 1.1 g. For the same molecule, the KIDNEY_TOTAL ([…], time 7 day) was 2.2 g, the KIDNEY_L ([…], time 14 day) was 1.3 g and the KIDNEY_R ([…], time 14 day) was 1.3 g. For the same molecule, the KIDNEY_TOTAL ([…], time 14 day) was 2.6 g, the KIDNEY_L ([…], time 28 day) was 1.4 g and the KIDNEY_R ([…], time 28 day) was 1.4 g. The KIDNEY_TOTAL ([…], time 28 day) was 2.8 g, the LIVER ([…], time 7 day) was 12.3 g and the LIVER ([…], time 14 day) was 14.5 g. It also gave an LIVER ([…], time 28 day) of 16.5 g, an A/G ([…], time 7 day) of 1.1 and an ALP ([…], time 7 day) of 1523.4 IU/L. For the same molecule, the ALT ([…], time 7 day) was 43 IU/L, the AST ([…], time 7 day) was 69.6 IU/L and the BUN ([…], time 7 day) was 17.8 mg/dL. It also gave a CRE ([…], time 7 day) of 0.2 mg/dL, a Ca ([…], time 7 day) of 10.5 mg/dL and a Cl ([…], time 7 day) of 106.8 meq/L. For the same molecule, the DBIL ([…], time 7 day) was 0 mg/dL, the GLC ([…], time 7 day) was 198 mg/dL and the IP ([…], time 7 day) was 7.3 mg/dL. It also gave a K ([…], time 7 day) of 4.1 meq/L, an LDH ([…], time 7 day) of 200.2 IU/L and a Na ([…], time 7 day) of 142.2 meq/L. It also gave a PL ([…], time 7 day) of 147.6 mg/dL, an RALB ([…], time 7 day) of 3 g/dL and a TBIL ([…], time 7 day) of 0.006 mg/dL. The TC ([…], time 7 day) was 75.4 mg/dL, the TG ([…], time 7 day) was 91.6 mg/dL and the TP ([…], time 7 day) was 5.6 g/dL. For the same molecule, the gamma-GTP ([…], time 7 day) was 1.8 IU/L, the A/G ([…], time 14 day) was 1.2 and the ALP ([…], time 14 day) was 1341.2 IU/L. The ALT ([…], time 14 day) was 41 IU/L, the AST ([…], time 14 day) was 72.6 IU/L and the BUN ([…], time 14 day) was 19.6 mg/dL. It also gave a CRE ([…], time 14 day) of 0.2 mg/dL, a Ca ([…], time 14 day) of 10.5 mg/dL and a Cl ([…], time 14 day) of 106.4 meq/L. The DBIL ([…], time 14 day) was 0 mg/dL, the GLC ([…], time 14 day) was 196.6 mg/dL and the IP ([…], time 14 day) was 7.2 mg/dL. For the same molecule, the K ([…], time 14 day) was 4 meq/L, the LDH ([…], time 14 day) was 191.2 IU/L and the Na ([…], time 14 day) was 141.6 meq/L. For the same molecule, the PL ([…], time 14 day) was 139.6 mg/dL, the RALB ([…], time 14 day) was 3 g/dL and the TBIL ([…], time 14 day) was 0 mg/dL. It also gave a TC ([…], time 14 day) of 64.2 mg/dL, a TG ([…], time 14 day) of 116.4 mg/dL and a TP ([…], time 14 day) of 5.7 g/dL. For the same molecule, the gamma-GTP ([…], time 14 day) was 1.6 IU/L, the A/G ([…], time 28 day) was 1 and the ALP ([…], time 28 day) was 977.2 IU/L. For the same molecule, the ALT ([…], time 28 day) was 41 IU/L, the AST ([…], time 28 day) was 67 IU/L and the BUN ([…], time 28 day) was 19.4 mg/dL. For the same molecule, the CRE ([…], time 28 day) was 0.3 mg/dL, the Ca ([…], time 28 day) was 10.3 mg/dL and the Cl ([…], time 28 day) was 105.8 meq/L. The DBIL ([…], time 28 day) was 0 mg/dL, the GLC ([…], time 28 day) was 208 mg/dL and the IP ([…], time 28 day) was 6.8 mg/dL. The K ([…], time 28 day) was 4.1 meq/L, the LDH ([…], time 28 day) was 156 IU/L and the Na ([…], time 28 day) was 142.2 meq/L. The PL ([…], time 28 day) was 143.6 mg/dL, the RALB ([…], time 28 day) was 3.1 g/dL and the TBIL ([…], time 28 day) was 0.008 mg/dL. The TC ([…], time 28 day) was 72.8 mg/dL, the TG ([…], time 28 day) was 100.8 mg/dL and the TP ([…], time 28 day) was 6.2 g/dL. It also gave a gamma-GTP ([…], time 28 day) of 2.4 IU/L.
